Data taken from PMC6704710, “Preclinical evaluation of 3D185, a novel potent inhibitor of FGFR1/2/3 and CSF-1R, in FGFR-dependent and macrophage-dominant cancer models” (Journal of Experimental & Clinical Cancer Research : CR, 2019).

Assays:
Experiment in all cases: Eurofins kinase panel
Assay type in all cases: biochemical
Conditions in all cases: read-out: Inhibition rate (%)
BrSK1(h) = target: T1, BrSK1(h) (Homo sapiens, UniProt Q8TDC3)
T1 construct: purchased Eurofins (KinaseProfiler)
T1 sequence (Q8TDC3 1-778): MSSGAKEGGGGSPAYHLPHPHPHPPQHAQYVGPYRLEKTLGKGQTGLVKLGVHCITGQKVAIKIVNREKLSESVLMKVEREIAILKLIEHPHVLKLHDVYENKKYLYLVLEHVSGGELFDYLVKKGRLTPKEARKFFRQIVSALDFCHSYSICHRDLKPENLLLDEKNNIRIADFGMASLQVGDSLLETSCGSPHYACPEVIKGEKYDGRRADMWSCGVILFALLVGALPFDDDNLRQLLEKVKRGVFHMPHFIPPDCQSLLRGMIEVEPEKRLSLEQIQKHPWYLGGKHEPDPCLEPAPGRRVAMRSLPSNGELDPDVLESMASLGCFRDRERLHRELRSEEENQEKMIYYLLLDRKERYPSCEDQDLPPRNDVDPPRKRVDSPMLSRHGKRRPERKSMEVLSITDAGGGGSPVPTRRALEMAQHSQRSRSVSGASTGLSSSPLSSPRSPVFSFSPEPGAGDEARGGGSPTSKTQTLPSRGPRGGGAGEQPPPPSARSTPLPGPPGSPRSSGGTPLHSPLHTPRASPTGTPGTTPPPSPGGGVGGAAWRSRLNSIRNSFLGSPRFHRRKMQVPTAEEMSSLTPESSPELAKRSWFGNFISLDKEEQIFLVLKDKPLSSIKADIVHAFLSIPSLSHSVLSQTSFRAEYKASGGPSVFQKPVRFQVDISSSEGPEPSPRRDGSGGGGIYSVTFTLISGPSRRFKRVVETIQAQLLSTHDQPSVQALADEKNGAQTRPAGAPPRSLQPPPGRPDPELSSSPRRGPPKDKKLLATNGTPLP

DDR2(h) = target: T2, DDR2(h) (Homo sapiens, UniProt Q16832)
T2 construct: purchased Eurofins (KinaseProfiler)
T2 sequence (Q16832 22-855): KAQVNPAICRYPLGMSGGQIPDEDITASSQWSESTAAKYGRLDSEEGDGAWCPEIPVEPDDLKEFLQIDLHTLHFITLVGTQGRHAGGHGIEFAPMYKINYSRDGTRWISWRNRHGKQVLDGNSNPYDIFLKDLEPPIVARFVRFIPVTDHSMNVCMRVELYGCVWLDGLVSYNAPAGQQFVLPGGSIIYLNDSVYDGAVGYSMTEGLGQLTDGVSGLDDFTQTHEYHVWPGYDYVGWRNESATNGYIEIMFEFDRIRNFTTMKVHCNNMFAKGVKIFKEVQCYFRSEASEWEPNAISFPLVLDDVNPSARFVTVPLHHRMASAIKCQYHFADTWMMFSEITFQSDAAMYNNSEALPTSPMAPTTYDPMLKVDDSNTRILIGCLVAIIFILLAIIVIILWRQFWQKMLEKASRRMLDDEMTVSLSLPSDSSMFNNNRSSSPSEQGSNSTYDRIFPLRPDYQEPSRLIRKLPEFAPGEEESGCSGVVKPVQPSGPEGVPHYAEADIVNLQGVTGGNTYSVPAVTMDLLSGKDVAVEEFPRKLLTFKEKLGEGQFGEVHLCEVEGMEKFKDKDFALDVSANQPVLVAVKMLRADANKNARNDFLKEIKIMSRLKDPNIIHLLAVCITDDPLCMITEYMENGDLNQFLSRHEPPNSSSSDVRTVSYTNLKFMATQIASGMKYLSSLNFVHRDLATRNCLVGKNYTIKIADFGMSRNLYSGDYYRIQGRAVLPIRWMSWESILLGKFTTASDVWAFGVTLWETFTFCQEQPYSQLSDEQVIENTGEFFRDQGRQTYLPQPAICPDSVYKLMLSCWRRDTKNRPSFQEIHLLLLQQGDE

PKAcβ(h) = target: T3, PKAcβ(h) (Homo sapiens, UniProt P22694)
T3 construct: purchased Eurofins (KinaseProfiler)

## COc1cc(OC)c(Cl)c(-c2ccc3c(NC(=O)c4ccc(N5CCNC(C)(C)C5)cc4)n[nH]c3n2)c1Cl [3D185]
BrSK1(h); 10 nM
  inhibition at 0.01 µM: 13%
BrSK1(h); 100 nM
  inhibition at 0.1 µM: 11%
BrSK1(h); 1000 nM
  inhibition at 1 µM: 11%
DDR2(h); 10 nM
  inhibition at 0.01 µM: 0%
DDR2(h); 100 nM
  inhibition at 0.1 µM: 7%
DDR2(h); 1000 nM
  inhibition at 1 µM: 54%
PKAcβ(h); 10 nM
  inhibition at 0.01 µM: -6%
PKAcβ(h); 100 nM
  inhibition at 0.1 µM: -11%
PKAcβ(h); 1000 nM
  inhibition at 1 µM: -11%
